Data from patent US20120010177A1, “MicroRNA Modulators and Method for Identifying And Using The Same” (The Wistar Institute / North Carolina State University, priority 2008, published 2012).
Where two headings read alike, the source gives them in different places.

Test system: miR-21
Test: High throughput primary miR-21 FLuc reporter assay (concentration-response)
Format: cell-based, human
Conditions: HeLa Luc-miR-21 reporter, 48-hour incubation; for AC50: read-out: AC50
Procedure: Primary miR-21 Assay. The primary miR-21 FLuc reporter assay is carried out with HeLa cells expressing the Luc-miR-21 reporter using a 48-hour incubation time. Active compounds that increase the luciferase response are identified based upon inhibition of miR-21.
SAR. The concentration-response data for the entire high throughput screen is plotted and modeled by a four parameter logistic fit and SAR analysis is performed according to conventional approaches (Iglese, et al. (2006) Proc. Natl. Acad. Sci. USA […]:11473-8). In brief, Class 1.1 and 1.2 are full curves containing upper and lower asymptotes with efficacy ≧80% and <80%, respectively. Class 2.1 and 2.2 are incomplete curves having only one asymptote with efficacy ≧80% and <80%, respectively. Class 3 curves show activity at only the highest concentration or are poorly fit. […] For SAR analysis, compounds associated with Class 1 and 2.1 curves are clustered using LEADSCOPE® fingerprints. […] Compounds sharing a common scaffold form a series. Candidate series and singletons are chosen for follow up studies. For each lead or series, an appropriate library design method (e.g., point substitution library or matrix library) is selected. Typically, precursors are synthesized and a library of 15-25 compounds is produced for analysis in the above-described assays.

| Compound | AC50 (Homo sapiens, HeLa, 48 h) | further results |
| --- | --- | --- |
| Cc1ccc(SCC(=O)Nc2ccc3oc(-c4ccc(F)cc4)nc3c2)cc1 [Compound 140] | 7.36 µM |  |
| Cc1ccc(NC(=O)CSc2nnc(-c3cccs3)o2)cc1S(=O)(=O)N(C)C [Compound 141] | 8.26 µM |  |
| O=C(CSc1nnc(-c2ccccn2)o1)Nc1ccccc1C(F)(F)F [Compound 142] | 9.27 µM |  |
| CN(C(=O)CSc1nnc(-c2ccccc2F)o1)C1CCCCC1 [Compound 143] | 9.27 µM |  |
| COc1cc2cc(C#N)c(SCC(=O)N3CCOCC3)nc2cc1OC [Compound 144] | 11.7 µM |  |
| COCc1cc(C)nc(SCC(=O)Nc2ccc3c(c2)OCCO3)c1C#N [Compound 145] | 11.7 µM |  |
| CCC(=O)Oc1ccc(NC(=O)CSCc2ccccc2)cc1 [Compound 146] | 11.7 µM |  |
| Cc1ccc(-c2csc(NC(=O)CSc3nc4ccccc4o3)n2)cc1 [Compound 147] | 11.7 µM |  |
| Cc1cccc(-c2nsc(SCC(=O)Nc3ccc4c(c3)OCO4)n2)c1 [Compound 148] | 13.1 µM |  |
| O=C(CSc1nnc(-c2cccnc2)o1)Nc1cccc(Cl)c1 [Compound 149] | 13.1 µM |  |
| CSc1nsc(SCC(=O)N2CCCCC2)n1 [Compound 150] | 13.1 µM |  |
| COc1ccc(-c2nnc(SCC(=O)Nc3cccc(C)c3)s2)cc1 [Compound 151] | 13.1 µM |  |
| O=C(CSc1ccccc1)NCCc1ccccc1 [Compound 152] | 14.7 µM |  |
| COc1ccccc1NC(=O)CSc1nnc(-c2ccccn2)o1 [Compound 153] | 14.7 µM |  |
| Nc1[nH]cnc2nc(SCC(=O)Nc3ccccc3F)nc1-2 [Compound 154, N\C1═C2/N═C(SCC(═O)NC3═C/C═C\C═C\3F)\N═C\2\N═C/N1] |  | Efficacy: −64.80; Curve Class (four parameter logistic fit): −2.2; AC50: 14.7 µM |
| CCN(CC)C(=O)CS/C(=N/C#N)Nc1ccccc1F [Compound 155] | 14.7 µM |  |
| Cc1cc(C)c(C#N)c(SCC(=O)Nc2nonc2N)n1 [Compound 156] | 14.7 µM |  |
| Cc1cc(C)cc(NC(=O)CSc2nnc(-c3ccccc3C)o2)c1 [Compound 157] | 14.7 µM |  |
| CSc1nsc(SCC(=O)Nc2ccccc2F)n1 [Compound 158] | 14.7 µM |  |
| Cc1ccc(-c2nnc(SCC(=O)Nc3nccs3)n2N)cc1 [Compound 159] | 16.5 µM |  |
| CCOC(=O)N1CCN(C(=O)CSCc2ccccc2Cl)CC1 [Compound 160] | 16.5 µM |  |

| Compound | AC50 (Homo sapiens, HeLa, 48 h) | further results |
| --- | --- | --- |
| Cc1ccc(-c2nsc(SCC(=O)Nc3ccc4c(c3)OCO4)n2)cc1 [Compound 161] | 16.5 µM |  |
| CCC(C)NC(=O)CSc1ccc(Cl)cc1 (stereo not shown) [Compound 162] | 18.5 µM |  |
| CCOc1ccc(NC(=O)CSc2ccc3ccccc3n2)cc1 [Compound 163] | 18.5 µM |  |
| O=C(CSc1nnc(-c2ccc(Br)cc2)o1)Nc1cccc2ccccc12 [Compound 164] | 18.5 µM |  |
| COc1ccc(OCC(=O)Nc2ccc(-c3nc4cc(C)c(C)cc4o3)cc2)cc1 [Compound 165] | 0.13 µM |  |
| O=C(COc1ccccc1F)Nc1ccc(-c2nc3ccccc3s2)cc1 [Compound 166] | 1.47 µM |  |
| COc1ccc(OCC(=O)Nc2ccc(-c3nc4cc(Cl)ccc4o3)cc2)cc1 [Compound 167] | 2.93 µM |  |
| Cc1cccc(OCC(=O)Nc2sc3c(c2C#N)CCC3)c1 [Compound 168] | 6.56 µM |  |
| Cc1ccc(OCC(=O)N(Cc2ccco2)c2ccccn2)cc1 [Compound 169] | 14.7 µM |  |
| CCCNC(=O)COCc1cc(-c2ccc(F)cc2)on1 [Compound 170] | 16.5 µM |  |
| CCn1c2ccccc2c2cc(NC(=O)COC(=O)Cc3cn4ccsc4n3)ccc21 [Compound 171] | 16.5 µM |  |
| O=C(COc1ccccc1[N+](=O)[O-])N/N=C/c1ccc(O)cc1 [Compound 172] | 11.7 µM |  |
| O=C(COc1ccccc1[N+](=O)[O-])N/N=C/c1cccc(OC(=O)c2ccc3c(c2)OCO3)c1 [Compound 173] | 18.5 µM |  |
| CC(=O)Nc1ccc(NC(=O)COc2ccc(Cl)cc2Cl)cc1 [Compound 175] | 14.7 µM |  |
| COCC(=O)Nc1nnc(C2CCCCC2)s1 [Compound 176] | 16.5 µM |  |
| COc1ccc(-c2csc(NC(=O)COC(=O)c3ccc(Br)o3)n2)cc1 [Compound 177] | 2.93 µM |  |
| COCC(=O)Nc1ccc(C(=O)Nc2ccccc2Cl)cc1 [Compound 178] | 11.7 µM |  |
| CC(C)c1nnc(NC(=O)COc2ccccc2[N+](=O)[O-])s1 [Compound 179] | 9.27 µM |  |
| Cc1cc(CC(C)C)n(-c2nc3ccccc3c(=O)n2OCC(N)=O)n1 [Compound 180] | 14.7 µM |  |
| C=CCNC(=S)NNC(=O)COc1ccc2cc(Br)ccc2c1 [Compound 181] | 7.36 µM |  |
